Earlier results in article PMC11224109, “Synthesis and preclinical evaluation of novel ^18F-vancomycin-based tracers for the detection of bacterial infections using positron emission tomography” (European Journal of Nuclear Medicine and Molecular Imaging, 2024).

Settings: cited from earlier work

## CN[C@H](CC(C)C)C(=O)N[C@H]1C(=O)N[C@@H](CC(N)=O)C(=O)N[C@H]2C(=O)N[C@H]3C(=O)N[C@H](C(=O)N[C@H](C(=O)O)c4cc(O)cc(O)c4-c4cc3ccc4O)[C@H](O)c3ccc(c(Cl)c3)Oc3cc2cc(c3O[C@@H]2O[C@H](CO)[C@@H](O)[C@H](O)[C@H]2O[C@H]2C[C@](C)(N)[C@H](O)[C@H](C)O2)Oc2ccc(cc2Cl)[C@H]1O [vancomycin]
  Clinically relevant serum levels: about 15 µg/mL
